Measurements taken from patent publication EP4635500A1, “THERAPEUTIC AGENT FOR BACTERIAL INFECTION” (Sumitomo Pharma Co., Ltd., priority 2022, dated 2024).

Test system: 53 CRE and CPE strains
Assay: MICrange, MIC50, MIC80, MIC90 for 53 bacterial isolates (Example 5, Table 5)
Assay type: cell-based
Details: 53 bacterial isolates

CC(C)(O/N=C(\C(=O)N[C@@H]1C(=O)N2C(C(=O)[O-])=C(C[n+]3ccccc3)CS[C@H]12)c1csc(N)n1)C(=O)O [CAZ, ceftazidime]
> 32 µg/mL: MIC50 (read-out: MIC50) | MIC80 (read-out: MIC80) | MIC90 (read-out: MIC90)
